The values that follow come from PubChem BioAssay AID602130 (Sanford-Burnham Center for Chemical Genomics, 2011).

Active and inactive are the calls of the source.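 How the source made its calls: active means IC50 at or below 20 µM; inactive means the rest.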

As usually defined, the IC50 is the midpoint of a concentration-inhibition curve.

The target of the test is Glucose-6-phosphate 1-dehydrogenase (Homo sapiens) (UniProt P11413). In words: blockers of human G6PD activity – biochemical, fluorescence, dose response, set 3, selectivity assay for PfG6PD antimalarial inhibitor project, SAR follow-up (AID 602130). The conditions noted are these: human G6PD enzyme, NADPH resazurin-diaphorase fluorescence.
Chain of Glucose-6-phosphate 1-dehydrogenase (Homo sapiens) (P11413 whole entry, looked up): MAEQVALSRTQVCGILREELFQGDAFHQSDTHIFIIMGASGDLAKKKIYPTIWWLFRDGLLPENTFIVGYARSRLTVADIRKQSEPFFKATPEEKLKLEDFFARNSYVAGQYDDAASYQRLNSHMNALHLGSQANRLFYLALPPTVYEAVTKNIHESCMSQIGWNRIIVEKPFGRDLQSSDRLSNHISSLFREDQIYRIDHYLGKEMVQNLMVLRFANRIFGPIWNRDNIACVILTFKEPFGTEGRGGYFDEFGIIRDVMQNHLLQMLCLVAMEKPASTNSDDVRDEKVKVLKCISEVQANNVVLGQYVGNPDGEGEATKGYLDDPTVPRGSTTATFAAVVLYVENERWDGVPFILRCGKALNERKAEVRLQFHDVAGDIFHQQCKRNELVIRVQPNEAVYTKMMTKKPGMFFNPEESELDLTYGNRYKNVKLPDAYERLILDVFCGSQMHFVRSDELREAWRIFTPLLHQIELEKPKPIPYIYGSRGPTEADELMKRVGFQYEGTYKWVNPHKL
On to `CN(C)c1ccccc1CNC(=O)c1ccc2c(c1)NC(=O)/C(=C/c1ccccc1F)S2`, for which the IC50 is > 80 µM (inactive).
Take `CCCN1CCCC1CNC(=O)c1ccc2c(c1)NC(=O)/C(=C/c1ccccc1F)S2` (centres undefined): the IC50 is > 80 µM (inactive).
With `CCN(CC)CCCC(C)Nc1ccnc2cc(Cl)ccc12` (centres undefined) the figure was > 80 µM (inactive); with `CCC(C)N(CCNC(=O)c1ccc2c(c1)NC(=O)c1ccccc1S2)C1CCCCC1` (centres undefined), > 80 µM (inactive).
Next, `CCN1CCCC1CNC(=O)c1ccc2c(c1)NC(=O)/C(=C/c1ccc3ccccc3c1)S2` (centres undefined): > 80 µM (inactive).
With `NCCNC(=O)c1ccc2c(c1)NC(=O)c1ccccc1S2` the figure was > 80 µM (inactive); with `CCN1CCCC1CNC(=O)c1ccc2c(c1)NC(=O)/C(=C/c1ccc(F)cc1)S2` (centres undefined), > 80 µM (inactive).
For the compound `CCN1CCC[C@H]1CNC(=O)c1ccc2c(c1)NC(=O)c1ccccc1S2`, the IC50 was > 80 µM (inactive).
With `NC1CCN(C(=O)c2ccc3c(c2)NC(=O)c2ccccc2S3)C1` (centres undefined) the figure was > 80 µM (inactive); with `O=C1Nc2cc(C(=O)NCC3CCCN3)ccc2S/C1=C\c1ccccc1F` (centres undefined), > 80 µM (inactive); with `CCN1CCCC1CNC(=O)c1ccc2c(c1)NC(=O)/C(=C/c1cccc(F)c1)S2` (centres undefined), > 80 µM (inactive).
With `O=C(NCCN1CCCCC1)c1ccc2c(c1)NC(=O)c1ccccc1S2` the figure was > 80 µM (inactive).
Regarding `CCN1CCCC1CNC(=O)c1ccc2c(c1)NC(=O)C(Cc1ccccc1F)S2` (centres undefined), the IC50 is > 80 µM (inactive).
Next, `CCN1CCCC1CNC(=O)c1ccc2c(c1)NC(=O)/C(=C/c1c(F)cccc1F)S2` (centres undefined): > 80 µM (inactive).
Next, `CCC(C)N1CCCC1CNC(=O)c1ccc2c(c1)NC(=O)c1ccccc1S2` (centres undefined): > 80 µM (inactive); `O=C(NCCN1CCOCC1)c1ccc2c(c1)NC(=O)c1ccccc1S2`: > 80 µM (inactive).
Next, `CCN1CCC[C@@H]1CNC(=O)c1ccc2c(c1)NC(=O)/C(=C/c1ccccc1F)S2`: > 80 µM (inactive); `CCN1CCCC1CNC(=O)c1ccc2c(c1)NC(=O)/C(=C/c1cccc(F)c1F)S2` (centres undefined): > 80 µM (inactive).
With `CC(C)(C)OC(=O)N1CCCC1CNC(=O)c1ccc2c(c1)NC(=O)/C(=C/c1ccccc1F)S2` (centres undefined), the IC50 is > 80 µM (inactive).
With `O=C(NCCNC1CCCCC1)c1ccc2c(c1)NC(=O)c1ccccc1S2` the figure was > 80 µM (inactive); with `NC1CCN(C(=O)c2ccc3c(c2)NC(=O)/C(=C/c2ccccc2F)S3)C1` (centres undefined), > 80 µM (inactive); with `CCN1CCC[C@@H]1CNC(=O)c1ccc2c(c1)NC(=O)c1ccccc1S2`, > 80 µM (inactive).
Next, `CCN1CCC[C@H]1CNC(=O)c1ccc2c(c1)NC(=O)/C(=C/c1ccccc1F)S2`: > 80 µM (inactive); `CCN(CC)CCNC(=O)c1ccc2c(c1)NC(=O)/C(=C/c1ccccc1F)S2`: > 80 µM (inactive).
